Literature values as cited in patent US11534622B2, “Non-invasive systems and methods for selective activation of photoreactive responses” (IMMUNOLIGHT, LLC, priority 2014, dated 2022).

Assays:
tumors = settings: in vivo
[1] = orange juice, high UV exposure of 100 mJ/cm^2
[2] = clinical use

## CC(=O)[O-].CC(=O)[O-].CCc1c(CC)c2cc3nc(cnc4cc(OCCOCCOCCOC)c(OCCOCCOCCOC)cc4ncc4nc(cc1[n-]2)C(CCCO)=C4C)C(C)=C3CCCO.O.[Lu+3] [Lutetium texaphryin, Motexafin lutetium]
tumors
  selectivity for tumors compared to normal tissues: one of the greatest reported selectivities for tumors

## O=C1O[C@H]([C@@H](O)CO)C(O)=C1O [Vitamin C]
[1]
  degradation of Vitamin C: 17%

## Oc1cccc(-c2c3nc(c(-c4cccc(O)c4)c4ccc([nH]4)c(-c4cccc(O)c4)c4nc(c(-c5cccc(O)c5)c5ccc2[nH]5)CC4)C=C3)c1 [Foscan, Tetra (m-hydroxyphenyl) chlorin]
[2]
  duration of skin photosensitivity: approximately 2 weeks
